Reference: patent US5329012A, “Bis(acyloxmethyl)imidazole compounds” (The Research Foundation of State University of New York, priority 1987, dated 1994)
Like-named read-outs stand apart in the source and are kept apart here.

System: lymphocytic leukemia P-388
Assay: P-388 lymphocytic leukemia test in mice (NCI Protocol 1.200)
Type: in vivo, CDF1 female mice
Conditions: for Tox.Day Surv. (survivors/animals tested): day 5; for response vs control in vivo at 12.5 mg/kg / response vs control in vivo at 25 mg/kg / response vs control in vivo at 50 mg/kg / response vs control in vivo at 100 mg/kg / response vs control in vivo at 200 mg/kg / response vs control in vivo at 400 mg/kg: Mus musculus, P388, 120 h, read-out: % T/C (mean survival time)
Experimental: Various bis(acyloxymethyl)imidazole derivatives prepared in accord with Examples I-XVIII and designated Samples A-J, were tested for anti-tumor activity in vivo using the lymphocytic leukemia P-388 test procedure in mice with Samples A and B representing controls. The test system was that employed by the National Cancer Institute (NCI) for the preliminary screening of anti-tumor agents, according to Protocol 1.200 (Cancer Chemo. Reports Part 3, Vol. 3, No. 2, page 9; 1972). In the study ascitic fluid containing 6×10^6 cells was implanted in the peritoneal cavity of CDF1 female mice. Each imidazole was given in a single injection, at four to six different dose levels (5-6 mice/dose level) daily for five (5) days beginning 24 hours after tumor innoculation. The control animals received saline. Test criteria was in accord with NCI protocol as follows: toxicity day evaluations were carried out on day 5 (number of survivors/number of animals tested); % T/C data was calculated through mean survival time [% T/C=(MST treated/MST control)x100, where MST=mean survival time]; BWD refers to the body weight difference (grams) of test animals compared to control animals; KE refers to the log of the tumor cell population at the end of treatment relative to tumor cell population before treatment.
Table I sets out the identification of the compounds corresponding to the samples used in this and further Examples. Table II sets out the results of the P-388 tests.

[1] = 12.5 mg/kg/inj, daily for 5 days
[2] = 100 mg/kg/inj, daily for 5 days
[3] = 200 mg/kg/inj, daily for 5 days
[4] = 400 mg/kg/inj, daily for 5 days

SMILES	BWD (body weight difference vs control) [1] [g]	KE (log tumor cell population end vs before treatment) [1]	BWD (body weight difference vs control) (25 mg/kg/inj, daily for 5 days) [g]	KE (log tumor cell population end vs before treatment) (25 mg/kg/inj, daily for 5 days)	BWD (body weight difference vs control) (50 mg/kg/inj, daily for 5 days) [g]	KE (log tumor cell population end vs before treatment) (50 mg/kg/inj, daily for 5 days)	Tox.Day Surv. (survivors/animals tested) (50 mg/kg/inj, daily for 5 days)	BWD (body weight difference vs control) [2] [g]	KE (log tumor cell population end vs before treatment) [2]	Tox.Day Surv. (survivors/animals tested) [2]	BWD (body weight difference vs control) [3] [g]	KE (log tumor cell population end vs before treatment) [3]	Tox.Day Surv. (survivors/animals tested) [3]	response vs control in vivo at 50 mg/kg [%]	response vs control in vivo at 100 mg/kg [%]	response vs control in vivo at 200 mg/kg [%]	BWD (body weight difference vs control) [4] [g]	KE (log tumor cell population end vs before treatment) [4]	response vs control in vivo at 12.5 mg/kg [1] [%]	response vs control in vivo at 25 mg/kg (25 mg/kg/inj, daily for 5 days) [%]	further results
CNC(=O)OCc1ncn(-c2ccccc2)c1COC(=O)NC [A, 1-phenyl-4,5-bis(N-methylcarbonyloxymethyl)imidazole, reference compound]	-0.4	-1.55	0.2	-1.61	-0.8	-1.52	5/5	-0.4	-1.52	5/5	-1.2	-1.55	5/5	101	101	99					Tox.Day Surv. (survivors/animals tested) [1]: 5/5; Tox.Day Surv. (survivors/animals tested) (25 mg/kg/inj, daily for 5 days): 5/5; response vs control in vivo at 12.5 mg/kg: 99%; response vs control in vivo at 25 mg/kg: 95%
CC(C)NC(=O)OCc1ncn(-c2ccccc2)c1COC(=O)NC(C)C [B, 1-phenyl-4,5-bis[N-(2-propyl)carbonyloxymethyl]-imidazole, reference compound]	-0.4	-1.53	-0.1	-1.53	0.8	-1.62		0.6	-1.69		0.2	toxic					-2.3	toxic	103	103	response vs control in vivo at 50 mg/kg (50 mg/kg/inj, daily for 5 days): 97%; response vs control in vivo at 100 mg/kg [2]: 91%; response vs control in vivo at 200 mg/kg [3]: 90%; response vs control in vivo at 400 mg/kg [4]: 90%
CNC(=O)OCc1nc(SC)n(-c2ccccc2)c1COC(=O)NC [C, 1-phenyl-2-methylthio-4,5-bis-(N-methylcarbonyloxymethyl)imidazole]					-1.4	0.60	5/5	-1.6	0.17	5/5	-3.0	1.46	5/5	141	133	156	-5.2	toxic			Tox.Day Surv. (survivors/animals tested) [4]: 4/5
CSc1nc(COC(=O)NC(C)C)c(COC(=O)NC(C)C)n1-c1ccccc1 [D, 1-phenyl-2-methylthio-4,5-bis-[N-(2-propyl)carbonyloxymethyl]imidazole]	-0.2	-1.42	0.6		0.3	-1.64		-2.0	-1.62		-2.8	-1.64					-4.8	-1.52	111	101	response vs control in vivo at 50 mg/kg (50 mg/kg/inj, daily for 5 days): 95%; response vs control in vivo at 100 mg/kg [2]: 97%; response vs control in vivo at 200 mg/kg [3]: 90%; response vs control in vivo at 400 mg/kg [4]: 100%
